Target: T1, Human Akt1 (UniProt entry P31749) (Homo sapiens, UniProt P31749, C296S/C310S/C344S/E49C)
T1 construct: made in house; host or cells: baculovirus, TriEx Sf9 cells
Assay: iFLiK assay (fluorophore-labeled Akt1 binding assay)
Settings: for effect on PyMPO fluorescence (emission spectrum): PyMPO-labeled Akt1
Procedure: Measurements were carried out in black 384-well plates (Greiner Bio One). Labeled Akt1 was diluted to 200 nM in the measurement buffer consisting of 50 mM HEPES pH 7.4, 200 mM NaCl and 0.01% Triton-X 100. Dilution series of candidate compounds were prepared in DMSO at 21X the final desired concentration. Compounds (0.5 µL) were then mixed with labeled Akt1 (10 µL) in triplicates and with measurement buffer only in quadruplicates at 12 different concentrations to achieve final compound concentrations ranging from 0.8 nM to […]. Each well contained 5% v/v DMSO after mixing. Plates were then covered with an adhesive plastic foil and incubated for 2 h at RT prior to measurement of emission intensities at fluorophore-specific wavelengths (Table 1) using a Tecan Infinite M1000 plate reader. Compound auto-fluorescence was compensated by subtraction of the average background signals obtained in the absence of labeled kinase. The respective assay readout for the various Akt-fluorophore conjugates specified in Table 1 were fit to a Hill 4-parameter equation to determine Kd values for allosteric Akt ligands. Each reaction was performed in triplicate and at least three independent measurements of each Kd were determined for each ligand. Table 1: Overview of fluorophore probes.
Screening initiatives were carried out in black 384-well plates (Greiner Bio One). PyMPO-labeled Akt1 was diluted to 200 nM in the measurement buffer consisting of 50 mM HEPES pH 7.4, 200 mM Nacl and 0.01% Triton-X 100. Each candidate compound was prepared in DMSO at 210 µM. Compounds (0.5 µL) were then mixed each with labeled Akt1 (10 µL) and with measurement buffer only to achieve final compound concentrations of 10 µM. Each well contained 5% v/v DMSO after mixing. Plates were then covered with an adhesive plastic foil and incubated for 2 h at RT prior to measurement using a Tecan Infinite M1000 plate reader emission intensities at 508 nm and 638 nm, using both 419 nm and 440 nm for excitation. Compound auto-fluorescence was compensated by subtraction of the average background signals obtained in the absence of labeled kinase. Ratio of fluorescence intensities fl638/fl508 were calculated from the background-subtracted values. For hit picking criteria, see Table 2 below.

T1 sequence (P31749 whole entry E49C/C296S/C310S/C344S, one chain of several): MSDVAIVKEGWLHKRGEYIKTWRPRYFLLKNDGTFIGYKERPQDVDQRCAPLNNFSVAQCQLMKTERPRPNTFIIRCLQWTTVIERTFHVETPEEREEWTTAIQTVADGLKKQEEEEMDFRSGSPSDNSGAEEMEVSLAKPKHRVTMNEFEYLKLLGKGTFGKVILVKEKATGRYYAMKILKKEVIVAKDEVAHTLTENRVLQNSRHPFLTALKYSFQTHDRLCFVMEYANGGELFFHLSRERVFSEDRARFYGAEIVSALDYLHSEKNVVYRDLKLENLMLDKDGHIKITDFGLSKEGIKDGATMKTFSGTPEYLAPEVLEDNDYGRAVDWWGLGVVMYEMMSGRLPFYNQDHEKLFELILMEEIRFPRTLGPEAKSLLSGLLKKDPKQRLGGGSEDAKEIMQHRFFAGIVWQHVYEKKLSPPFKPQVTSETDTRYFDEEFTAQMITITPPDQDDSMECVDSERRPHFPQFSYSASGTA

## NC1(c2ccc(-c3nc4ccn5c(=O)[nH]nc5c4cc3-c3ccccc3)cc2)CCC1 [MK-2206]
  effect on PyMPO fluorescence (emission spectrum): bathochromic shift

## CCn1c(-c2nonc2N)nc2c(C#CC(C)(C)O)ncc(OC[C@H]3CCCNC3)c21 [GSK690693]
  effect on PyMPO fluorescence (emission spectrum): no effect
Collection of fluorophore-labeled kinases, dilution series 0.8 nM to 50 µM
  response of the labeled kinase: unresponsive

## O=C(O[C@@H]1Cc2c(O)cc(O)cc2O[C@@H]1c1cc(O)c(=O)c2c(O)c(O)cc([C@H]3Oc4cc(O)cc(O)c4C[C@H]3O)c2c1)c1cc(O)c(O)c(O)c1 [XX8]
  effect on PyMPO fluorescence (emission spectrum): reduction of the fluorescence intensity

## NC1(Cc2ccc(Cl)cc2)CCN(c2ncnc3[nH]ccc23)CC1 [CCT128930]
  effect on PyMPO fluorescence (emission spectrum): no effect

Reference: patent EP2810648A1, “Targeting domain-domain interaction for the identification of kinase modulators” (Rauh, Daniel, priority 2013, dated 2014)
